Measurements reported in ChEMBL document CHEMBL1132189, “Three-dimensional quantitative structure-activity relationship analyses using comparative molecular field analysis and comparative molecular similarity indices analysis to elucidate selectivity differences of inhibitors binding to trypsin, thrombin, and factor Xa” (J Med Chem, 1999).

Legend:
[1] = biological target: Prothrombin (Bos taurus, UniProt P00735); test: Binding affinity towards thrombin
[2] = biological target: Coagulation factor X (Homo sapiens, UniProt P00742); test: Binding affinity towards Coagulation factor Xa
[3] = biological target: T1, Serine protease 1 (Bos taurus, UniProt P00760); test: Binding affinity towards trypsin
T1 sequence (P00760 whole entry): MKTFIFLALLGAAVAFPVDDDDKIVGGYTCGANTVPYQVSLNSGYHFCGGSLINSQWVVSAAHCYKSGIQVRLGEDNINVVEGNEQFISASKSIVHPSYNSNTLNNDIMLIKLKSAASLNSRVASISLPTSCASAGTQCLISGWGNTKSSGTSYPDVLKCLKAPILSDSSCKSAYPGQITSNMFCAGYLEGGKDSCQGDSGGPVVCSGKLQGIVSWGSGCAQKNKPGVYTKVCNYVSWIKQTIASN

Sequence of Coagulation factor X (P00742 41-179 limits assumed): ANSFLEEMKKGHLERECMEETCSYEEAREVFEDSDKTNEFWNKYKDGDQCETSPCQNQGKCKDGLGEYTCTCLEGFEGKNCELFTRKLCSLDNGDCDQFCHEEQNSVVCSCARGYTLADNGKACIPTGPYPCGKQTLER
Sequence of Coagulation factor X (P00742 235-488 limits assumed): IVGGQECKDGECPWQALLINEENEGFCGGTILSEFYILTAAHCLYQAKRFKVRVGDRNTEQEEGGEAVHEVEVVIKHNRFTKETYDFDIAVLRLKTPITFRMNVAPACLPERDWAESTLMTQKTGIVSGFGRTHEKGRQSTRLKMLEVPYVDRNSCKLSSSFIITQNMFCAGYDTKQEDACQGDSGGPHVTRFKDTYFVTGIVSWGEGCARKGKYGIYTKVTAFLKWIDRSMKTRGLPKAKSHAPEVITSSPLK

Row | SMILES | Ki [1] [µM] | Ki [2] [µM] | Ki [3] [µM]
1 | N=C(N)c1cccc(C[C@H](NS(=O)(=O)c2ccc3ccccc3c2)C(=O)N2CCNCC2)c1 | 0.5 | 21 | 0.22
2 | N=C(N)c1cccc(C[C@H](NS(=O)(=O)c2ccc3ccccc3c2)C(=O)N2Cc3ccccc3C[C@@H]2C(=O)O)c1 | 0.018 | 41.5 | 0.13
3 | N=C(N)c1cccc(C[C@H](NS(=O)(=O)c2ccc3ccccc3c2)C(=O)N2Cc3ccccc3C=C2C(=O)O)c1 | 0.12 | 54 | 4.5
4 | N=C(N)c1cccc(C[C@H](NS(=O)(=O)c2ccc3ccccc3c2)C(=O)N2CCC[C@H](C(=O)O)C2)c1 | 1.1 | […] | […]
5 | Cc1c(C)c(S(=O)(=O)N[C@@H](Cc2cccc(C(=N)N)c2)C(=O)N2CCN(S(C)(=O)=O)CC2)c(C)c2c1OC(C)(C)CC2 | 0.00741 | 74.1 | 0.76
6 | CNC(=O)[C@H]1CCCN(C(=O)[C@H](Cc2cccc(C(=N)N)c2)NS(=O)(=O)c2ccc3ccccc3c2)C1 | 0.26 | 33.1 | 0.31
7 | Cc1ccc(S(=O)(=O)N[C@@H](Cc2cccc(C(=N)N)c2)C(=O)N2CCC(C)CC2)cc1 | 0.026 | 71 | 0.52
8 | N=C(N)c1cccc(C[C@H](NS(=O)(=O)c2ccc3ccccc3c2)C(=O)N2CCOCC2)c1 | 0.042 | 16 | 0.21
9 | N=C(N)c1cccc(C[C@H](NS(=O)(=O)c2ccc3ccccc3c2)C(=O)N2CC[C@@H]3CCCC[C@H]32)c1 | 0.32 | 13 | 1.2
10 | COC(=O)[C@H](Cc1cccc(C(=N)N)c1)NS(=O)(=O)c1ccc2ccccc2c1 | 0.28 | 2.51 | 2.51
11 | CNC(=O)C1CCN(C(=O)[C@H](Cc2cccc(C(=N)N)c2)NS(=O)(=O)c2ccc3ccccc3c2)CC1 | 0.16 | 76 | 0.16
12 | CNC(=O)[C@H](Cc1cccc(C(=N)N)c1)NS(=O)(=O)c1ccc(C)cc1 | 18 | 40 | 46
13 | CNC(=O)[C@H](Cc1cccc(C(=N)N)c1)NS(=O)(=O)c1c(C(C)C)cc(C(C)C)cc1C(C)C | 3.8 | 11 | 26
14 | N=C(N)c1cccc(C[C@H](NS(=O)(=O)c2ccc3ccccc3c2)C(=O)N2CCC[C@H](C(=O)OCc3ccccc3)C2)c1 | 0.3 | 8.59 | 0.16
15 | COC(=O)[C@@H]1CCCN1C(=O)[C@H](Cc1cccc(C(=N)N)c1)NS(=O)(=O)c1ccc2ccccc2c1 | 0.661 | 110 | 8.09
16 | N=C(N)c1cccc(C[C@H](NS(=O)(=O)c2ccc3ccccc3c2)C(=O)OCc2ccccc2)c1 | 0.042 | 2.2 | 0.52
17 | N=C(N)c1cccc(C[C@H](NS(=O)(=O)c2ccc3ccccc3c2)C(=O)N2CCC(C(=O)OC3CCCCC3)CC2)c1 | 2.1 | 7.6 | 0.08
18 | N=C(N)c1cccc(C[C@H](NS(=O)(=O)c2ccc3ccccc3c2)C(=O)N2CCCCCCC2)c1 | 0.03 | 22 | 0.61
19 | N=C(N)c1cccc(C[C@H](NS(=O)(=O)c2ccc3ccccc3c2)C(=O)N2CCCC2)c1 | 0.052 | 50 | 0.437
20 | CC(C)c1cc(C(C)C)c(S(=O)(=O)N[C@@H](Cc2cccc(C(=N)N)c2)C(=O)N2CCC[C@H](C(=O)NCc3ccccc3)C2)c(C(C)C)c1 | 1.8 | 2.51 | 0.46
21 | COC(=O)C1CCN(C(=O)[C@H](Cc2cccc(C(=N)N)c2)NS(=O)(=O)c2c(C)cc(C)cc2C)CC1 | 0.18 | 83.2 | 0.991
22 | CN(C)c1cccc2c(S(=O)(=O)N[C@@H](Cc3cccc(C(=N)N)c3)C(=O)N3CCN(S(C)(=O)=O)CC3)cccc12 | 0.00417 | 3.89 | 0.17
23 | CN(C)C(=O)N1CCN(C(=O)[C@H](Cc2cccc(C(=N)N)c2)NS(=O)(=O)c2ccc3ccccc3c2)CC1 | 0.00871 | 24 | 0.17

Row | SMILES | Ki [1] [µM] | Ki [2] [µM] | Ki [3] [µM]
24 | CN1CCN(C(=O)[C@H](Cc2cccc(C(=N)N)c2)NS(=O)(=O)c2ccc3ccccc3c2)CC1 | 0.036 | 30 | 1.3
25 | CC(C)OC(=O)C1CCN(C(=O)[C@H](Cc2cccc(C(=N)N)c2)NS(=O)(=O)c2ccc3ccccc3c2)CC1 | 0.71 | 25.1 | 0.023
26 | CCCCOC(=O)[C@H](Cc1cccc(C(=N)N)c1)NS(=O)(=O)c1ccc2ccccc2c1 | 0.013 | 3.1 | 0.26
27 | CNC(=O)[C@H]1CCCN(C(=O)[C@H](Cc2cccc(C(=N)N)c2)NS(=O)(=O)c2c(C(C)C)cc(C(C)C)cc2C(C)C)C1 | 0.23 | 1.51 | 0.794
28 | COC(=O)C1CCN(C(=O)[C@H](Cc2cccc(C(=N)N)c2)NS(=O)(=O)c2ccc3ccccc3c2)CC1 | 0.017 | 42.7 | 0.036
29 | N=C(N)c1cccc(C[C@H](NS(=O)(=O)c2ccc3ccccc3c2)C(=O)N2CCN(C(=O)CO)CC2)c1 | 0.0579 | 35 | 1.1
30 | CC(C)OC(=O)[C@H](Cc1cccc(C(=N)N)c1)NS(=O)(=O)c1ccc2ccccc2c1 | 0.11 | 3.5 | 1.41
31 | CC(C)c1cc(C(C)C)c(S(=O)(=O)N[C@@H](Cc2cccc(C(=N)N)c2)C(=O)N2CCN(S(C)(=O)=O)CC2)c(C(C)C)c1 | 0.28 | 7.4 | 0.979
32 | N=C(N)c1cccc(C[C@H](NS(=O)(=O)c2ccc3ccccc3c2)C(=O)N2CCC[C@H]2C(=O)OCc2ccccc2)c1 | 0.631 | 20 | 1
33 | COC(=O)[C@H]1[C@@H](C)CCCN1C(=O)[C@H](Cc1cccc(C(=N)N)c1)NS(=O)(=O)c1ccc2ccccc2c1 | 0.52 | 36 | 1.8
34 | Cc1ccc(S(=O)(=O)N[C@@H](Cc2cccc(C(=N)N)c2)C(=O)N2CCOCC2)cc1 | 0.17 | 52 | 0.71
35 | N=C(N)c1cccc(C[C@H](NS(=O)(=O)c2ccc3ccccc3c2)C(=O)N2CCN(c3ccccc3)CC2)c1 | 0.52 | 27 | 0.027
36 | CC1CCN(C(=O)[C@H](Cc2cccc(C(=N)N)c2)NS(=O)(=O)C[C@]23CC[C@H](CC2=O)C3(C)C)CC1 | 0.0141 | 14.1 | 0.631
37 | COC(=O)[C@H]1C[C@H](C)CCN1C(=O)[C@H](Cc1cccc(C(=N)N)c1)NS(=O)(=O)c1ccc2ccccc2c1 | 0.0959 | […] | 2.2
38 | N=C(N)c1cccc(C[C@H](NS(=O)(=O)c2ccc3ccccc3c2)C(=O)N2CCC(C(=O)OCc3ccccc3)CC2)c1 | 0.21 | 8.09 | 0.067
39 | CC1CCN(C(=O)[C@H](Cc2cccc(C(=N)N)c2)NS(=O)(=O)c2cccc3ccccc23)CC1 | 0.016 | 42 | 0.631
40 | N=C(N)c1cccc(C[C@H](NS(=O)(=O)c2ccc3ccccc3c2)C(=O)N2Cc3ccccc3C[C@@H]2C(=O)OCc2ccccc2)c1 | 0.69 | 7.76 | 1.2
41 | COc1cc(C)c(S(=O)(=O)N[C@@H](Cc2cccc(C(=N)N)c2)C(=O)N2CCN(S(C)(=O)=O)CC2)c(C)c1C | 0.032 | 120 | 1.8
42 | COC(=O)[C@H]1CCCCN1C(=O)[C@H](Cc1cccc(C(=N)N)c1)NS(=O)(=O)c1ccc2ccccc2c1 | 0.0692 | 46 | 1.9
43 | COC(=O)[C@H]1CCC[C@H](C)N1C(=O)[C@H](Cc1cccc(C(=N)N)c1)NS(=O)(=O)c1ccc2ccccc2c1 | 0.42 | 3.2 | 2.1
44 | CNC(=O)[C@H](Cc1cccc(C(=N)N)c1)NS(=O)(=O)c1ccc2ccccc2c1 | 5.7 | 26 | 25.1
45 | CCCCNC(=O)[C@H](Cc1cccc(C(=N)N)c1)NS(=O)(=O)c1ccc2ccccc2c1 | 0.12 | 46.8 | 4
